Data: patent publication US6340784B1, “Method for selective increase of the anticarcinogenic glucosinolates in Brassica sp” (Plant Bioscience Limited, priority 1998, dated 2002)
Where two headings read alike, the source gives them in different places. Marks after values point to notes of the source that are not given here.

Tests used:
[1] = tested on: QR in murine hepatoma Hepa 1c1c7 cells; experiment: Induction of QR (quinone reductase, phase II enzyme) activity in Hepa 1c1c7 cells; assay type: cell-based; design: induction of QR (fold): unit of the concentration uncertain; conditions: for CD: pure compound
Method: Extracts from the freeze-dried material were assessed for their induction activity in murine hepatoma Hepa 1c1c7 cells. Approximately 0.1 g of milled freeze-dried material was moistened by addition of water (2 ml), homogenised and left at room temperature for 1 hr with occasional mixing. Hot 70% (v/v) methanol (3 ml) was added and mixed thoroughly prior to incubation for 15 min at +70° C. The homogenates were cooled to room temperature and centrifuged for 5 min at 3000 r.p.m. Supernatants were removed and the volume decreased in a vacuum centrifuge to approximately one fifth of the initial volume. The resulting concentrates were filtered through sterile non-pyrogenic filters ([…]) and stored at −70° C. prior to testing. The concentrations of each extract were expressed as dry weight of original material to each ml of culture medium.
Induction was measured according to published methods (Tawfiq, N., Heaney, R. K., Plumb, J. A., Fenwick, G. R., Musk, S. R. R., & Williamson, G. (1995) Carcinogenesis 16, 1191-1194., Prochaska, H. J., & Santamaria, A. B. (1988) Anal. Biochem. 169, 328-336., Williamson, G., Plumb, G. W., Uda, Y., Price, K. R., & Rhodes, M. J. C. (1996) Carcinogenesis 17, 2385-2387.) with the following modifications. Each sample was analysed at eight concentrations using four replicates for each concentration. b-Napthoflavone was used as a positive control at a concentration of 0.2 mM. […] Each cultivar/hybrid was extracted on three occasions and analysed separately.

[2] = tested on: QR in murine hepatoma Hepa 1c1c7 cells; conditions: literature value, See Zhang (2), cited from earlier work
[3] = assuming 100% conversion of glucosinolate to isothiocyanate, from plant extracts

Row | Compound | apparent CD value [1, 3] [mM] | CD value for synthetic isothiocyanate [2] | induction of QR (fold) ([1]; positive control at 0.2 (unit uncertain)) | CD [1] [mM] | induction of QR (fold) ([1]; at 1.6 (unit uncertain)) | ability to induce QR activity (in words) ([1]; extracts or compound, cultivar extracts 0.001 mg/ml to 0.125 mg/ml) | apparent CD value ([1]; synthetic compound, positive control) [mM] | CD value for synthetic isothiocyanate ([2]; listed as 4-methylsulfinylbutyl) [µM]
1 | C[S+]([O-])CCCN=C=S (stereo not drawn) [3-methylsulfinylpropyl isothiocyanate] | 0.5 | 2.4 µM | – | – | – | – | – | –
2 | CSCCCN=C=S [3-methylthiopropyl isothiocyanate] | 1.6 | 3.5 µM | – | – | – | – | – | –
3 | O=c1cc(-c2ccccc2)oc2ccc3ccccc3c12 [b-Napthoflavone] | – | – | three-fold | 0.02 | – | – | – | –
4 | C[S+]([O-])CCCCN=C=S (stereo not drawn) [Synthetic sulforaphane, 4-methylsulfinylbutyl isothiocyanate] | – | 0.4-0.8§ μM | – | 0.4 | three-fold | potent inducer | 0.0003 | 0.4 to 0.8
